Measured values taken from patent US20220289691A1, “5-AMINO-SUBSTITUTED PYRAZOLES AND TRIAZOLES AS PEST CONTROL AGENTS” (Bayer Aktiengesellschaft, priority 2019, published 2022).

Legend:
Format in all cases: in vivo
Tetranychus urticae = Tetranychus urticae spray test, OP-resistant; details: 100 g/ha
Procedure: Tetranychus urticae—Spray Test, OP-Resistant Solvent: 78.0 parts by weight of acetone • • 1.5 parts by weight of dimethylformamide Emulsifier: alkylaryl polyglycol ether
(§1) To produce a suitable active compound formulation, 1 part by weight of active compound is dissolved using the stated parts by weight of solvent and made up with water containing an emulsifier concentration of 1000 ppm until the desired concentration is attained. To produce further test concentrations, the formulation is diluted with emulsifier-containing water.
Discs of bean leaves (Phaseolus vulgaris) infested with all stages of the greenhouse red spider mite (Tetranychus urticae) are sprayed with an active compound formulation of the desired concentration.
After 6 days, the efficacy in % is determined. 100% means that all the spider mites have been killed; 0% means that no spider mites have been killed.

Spodoptera frugiperda = Spodoptera frugiperda spray test; details: foliar, 168 h, maize leaf discs, after 7 days, read-out: efficacy (caterpillars killed)
Outline: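 Compound was dissolved in acetone/dimethylformamide and diluted with water containing 1000 ppm alkylaryl polyglycol ether emulsifier to test concentrations. Maize leaf discs were sprayed, dried and infested with fall armyworm caterpillars. Efficacy (% caterpillars killed) was scored after 7 days.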

Diabrotica balteata = Diabrotica balteata spray test; details: 168 h, beetle larvae on wheat, after 7 days, read-out: efficacy (wheat plant growth); for pest or weed control at 100 g/ha: 100 g/ha (=32 μg/cavity); for pest or weed control at 500 g/ha: 500 g/ha (=160 μg/cavity)
Outline: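 Germinated wheat seedlings in agar multiwell plates were sprayed with compound in acetone/DMF with emulsifier-containing water, then infested with 10-20 Diabrotica balteata larvae. After 7 days, efficacy (%) scored by plant growth: 100% equals untreated, uninfested control, 0% no plants grown.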

Ctenocephalides felis [1] = test: Ctenocephalides felis oral test; details: 48 h, 100 ppm in citrated cattle blood, adult cat fleas, after 2 days, read-out: efficacy (kill)
Procedure: Ctenocephalides felis—Oral Test
(§2) Solvent: Dimethyl Sulfoxide
To produce a suitable active compound formulation, 10 mg of active compound are mixed with 0.5 ml of dimethyl sulfoxide. Dilution with citrated cattle blood gives the desired concentration.
About 20 unfed adult cat fleas (Ctenocephalides felis) are placed into a chamber which is closed at the top and bottom with gauze. A metal cylinder whose bottom end is closed with parafilm is placed onto the chamber. The cylinder contains the blood/active compound formulation, which can be imbibed by the fleas through the parafilm membrane.
After 2 days, the kill in % is determined. 100% means that all of the fleas have been killed; 0% means that none of the fleas have been killed.

Nezara viridula = Nezara viridula spray test; details: 500 g/ha, larvae on barley plants, after 4 days
Procedure: Nezara viridula—Spray Test Solvent: 78.0 parts by weight of acetone • • 1.5 parts by weight of dimethylformamide Emulsifier: alkylaryl polyglycol ether
as §1
Barley plants (Hordeum vulgare) are sprayed with an active compound formulation of the desired concentration and are infected with larvae of the Southern green shield bug (Nezara viridula).
After 4 days, the efficacy in % is determined. 100% means that all of the shield bugs have been killed; 0% means that none of the shield bugs have been killed.

Myzus persicae = Myzus persicae oral test; details: 4 ppm, after 5 days
Procedure: Myzus persicae—Oral Test Solvent: 100 parts by weight of acetone
To produce a suitable active compound formulation, 1 part by weight of active compound is dissolved using the specified parts by weight of solvent and made up with water until the desired concentration is attained.
50 μl of the active compound formulation are transferred into microtitre plates and made up to a final volume of 200 μl with 150 μl of IPL41 insect medium (33%+15% sugar). Subsequently, the plates are sealed with parafilm, which a mixed population of green peach aphids (Myzus persicae) within a second microtitre plate is able to puncture and imbibe the solution through.
After 5 days, the efficacy in % is determined. 100% means that all the aphids have been killed; 0% means that no aphids have been killed.

Ctenocephalides felis [2] = test: Ctenocephalides felis in vitro contact test with adult cat fleas; details: 5 μg/cm^2 (=500 g of ai/ha), after 48 h, read-out: efficacy (fleas dead or moribund)
Procedure: Ctenocephalides felis—In Vitro Contact Tests with Adult Cat Fleas
For the coating of the test tubes, 9 mg of active compound are first dissolved in 1 ml of acetone p.a. and then diluted to the desired concentration with acetone p.a. 250 μl of the solution are distributed homogeneously on the inner walls and the base of a 25 ml glass tube by turning and rocking on an orbital shaker (rocking rotation at 30 rpm for 2 h). With 900 ppm of active compound solution and internal surface area 44.7 cm^2, given homogeneous distribution, an area-based dose of 5 μg/cm^2 is achieved.
After the solvent has evaporated off, the tubes are populated with 5-10 adult cat fleas (Ctenocephalides felis), sealed with a perforated plastic lid and incubated in a horizontal position at room temperature and ambient humidity. After 48 h, efficacy is determined. To this end, the tubes are stood upright and the fleas are knocked to the base of the tube. Fleas which remain motionless at the base or move in an uncoordinated manner are considered to be dead or moribund.
100% efficacy means that all the fleas were dead or moribund. 0% efficacy means that no fleas were harmed.

Phaedon cochleariae = Phaedon cochleariae spray test; details: foliar, 168 h, Chinese cabbage leaf discs, after 7 days, read-out: efficacy (beetle larvae killed)
Procedure: Phaedon cochleariae—Spray Test Solvent: 78.0 parts by weight of acetone • • 1.5 parts by weight of dimethylformamide Emulsifier: alkylaryl polyglycol ether
as §1
Discs of Chinese cabbage leaves (Brassica pekinensis) are sprayed with an active compound formulation of the desired concentration and, after drying, populated with larvae of the mustard beetle (Phaedon cochleariae).
After 7 days, the efficacy in % is determined. 100% means that all the beetle larvae have been killed; 0% means that no beetle larvae have been killed.

Musca domestica = Musca domestica test; details: 100 ppm, adult houseflies, after 2 days
Procedure: as §2
To produce a suitable active compound formulation, 10 mg of active compound are mixed with 0.5 ml of dimethyl sulfoxide, and the concentrate is diluted with water to the desired concentration.
Vessels containing a sponge treated with sugar solution and the desired concentration of active compound formulation are populated with 10 adult houseflies (Musca domestica).
After 2 days, the kill in % is determined. 100% means that all of the flies have been killed; 0% means that none of the flies have been killed.

With CCOCCNc1nc(-c2ccc(C=NNC(=S)Nc3ccccc3C(C)C)cc2)nn1-c1ccc(OC(F)(F)F)cc1 [Compound I-060] as the molecule, how does the “efficacy (spider mites killed)” value (Tetranychus urticae; bean leaf discs, all stages, after 6 days) read?
The value was 90%.

And the pest or weed control at 100 g/ha (Spodoptera frugiperda)?
Its pest or weed control at 100 g/ha is 100%.

What about the pest or weed control at 100 g/ha (Diabrotica balteata) of the same molecule?
The pest or weed control at 100 g/ha was 100%.

What about the pest or weed control at 500 g/ha (Diabrotica balteata) of the same molecule?
Its pest or weed control at 500 g/ha is 100%.

What does the source list for CNc1nc(-c2ccc(C=NNC(=S)Nc3ccccc3C(C)C)cc2)nn1-c1ccc(OC(F)(F)F)cc1 [Compound I-018, 1-(2-isopropylphenyl)-3-[[4-[5-(methylamino)-1-[4-(trifluoromethoxy)phenyl]-1,2,4-triazol-3-yl]phenyl]methyleneamino]thiourea]?
pest or weed control at 100 ppm (Ctenocephalides felis [1]): 95%; efficacy (shield bugs killed) (Nezara viridula): 100%; pest or weed control at 100 g/ha (Spodoptera frugiperda): 100%; efficacy (aphids killed) (Myzus persicae): 90%; pest or weed control at 5 µg/cm2 (Ctenocephalides felis [2]): 80%; pest or weed control at 125 g/ha (Diabrotica balteata; 125 g/ha (=40 μg/cavity)): 100%; pest or weed control at 500 g/ha (Diabrotica balteata): 100%

Which results are given for CCO[C@@H]1[C@@H](OC)[C@H](C)O[C@@H](OC(=O)Nc2ccc(-c3nc(NC(C)=O)n(-c4ccc(OC(F)(F)C(F)(F)F)cc4)n3)cc2)[C@@H]1OC [Compound I-006]?
pest or weed control at 100 ppm (Ctenocephalides felis [1]): 95%; efficacy (spider mites killed) (Tetranychus urticae; foliar, 144 h): 100%; pest or weed control at 100 g/ha (Spodoptera frugiperda): 100%; pest or weed control at 500 g/ha (Spodoptera frugiperda): 100%; pest or weed control at 100 g/ha (Phaedon cochleariae; 100 g/ha): 100%; pest or weed control at 500 g/ha (Phaedon cochleariae): 100%; efficacy (kill) (Musca domestica): 80%

CCO[C@@H]1[C@@H](OC)[C@H](C)O[C@@H](OC(=O)Nc2ccc(-c3nc(NC(C)=O)n(-c4ccc(OC(F)(F)F)cc4)n3)cc2)[C@@H]1OC [Compound I-001, [(2S,3R,4R,5S,6S)-4-ethoxy-3,5-dimethoxy-6-methyl-tetrahydropyran-2-yl]N-[4-[5-acetamido-1-[4-(trifluoromethoxy)phenyl]-1,2,4-triazol-3-yl]phenyl]carbamate] was tested. Which “efficacy (spider mites killed)” value (Tetranychus urticae; foliar, 144 h) did it give?
Its value is 90%.

What about the pest or weed control at 100 g/ha (Spodoptera frugiperda) of the same molecule?
The pest or weed control at 100 g/ha was 100%.

And the pest or weed control at 500 g/ha (Spodoptera frugiperda)?
The pest or weed control at 500 g/ha was 100%.

What about the pest or weed control at 500 g/ha (Phaedon cochleariae) of the same molecule?
The pest or weed control at 500 g/ha was 100%.

Which results are given for CC(C)c1ccccc1NC(=S)NN=Cc1ccc(-c2nc(NC3CSC3)n(-c3ccc(OC(F)(F)F)cc3)n2)cc1 [Compound I-057]?
pest or weed control at 100 g/ha (Spodoptera frugiperda): 100%; efficacy (aphids killed) (Myzus persicae): 90%; pest or weed control at 100 g/ha (Diabrotica balteata): 100%; pest or weed control at 500 g/ha (Diabrotica balteata): 100%
